The values that follow come from PMC11554305, “Functional identification of soluble uric acid as an endogenous inhibitor of CD38” (eLife, 2024).

The target in series [1] is T1, recombinant human CD38 (hCD38) (Homo sapiens, UniProt P28907).
T1 construct: the commercial recombinant hCD38 without a transmembrane region was partially used in this study; purchased Sino Biological 10818-H08H
T1 sequence (P28907 43-300 limits assumed): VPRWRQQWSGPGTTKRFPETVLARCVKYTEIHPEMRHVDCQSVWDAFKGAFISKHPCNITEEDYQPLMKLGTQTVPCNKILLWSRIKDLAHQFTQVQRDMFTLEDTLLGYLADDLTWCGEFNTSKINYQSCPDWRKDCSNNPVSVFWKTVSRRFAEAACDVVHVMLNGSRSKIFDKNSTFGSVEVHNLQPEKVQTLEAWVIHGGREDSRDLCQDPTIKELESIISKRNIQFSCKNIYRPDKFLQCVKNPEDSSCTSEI
Description: CD38 cyclase activity, recombinant hCD38 (NGD substrate). As to conditions: sUA 0–500 μM, Figure 1B. Format: biochemical. Here is the method:
The cyclase activity of CD38 was measured as previously described ([Higashida et al., 1999]; [Jin et al., 2007]). CD38 cyclase activity was measured using 60 μM NGD as a substrate in cyclase reaction buffer (100 mM KCl, 10 μM CaCl2, and 50 mM Tris-HCl, pH 6.6). Tissues were cut into pieces and suspended in the buffer (5 mM MgCl2, 10 mM Tris-HCl, pH 7.3) at 4°C for 30 min. Then, the suspension was homogenized on ice, and the supernatant was collected after centrifugation. To collect the crude membrane fractions, the supernatant was centrifuged at 105,000×g for 30 min. The final pellet was resuspended in 10 mM Tris-HCl solution (pH 6.6) for cyclase assay. Homogenates of THP-1 or A549 cells, and recombinant hCD38 were used directly for cyclase assays. The loading volume of enzyme was 4–20 μL, the total volume of reaction system was 3 mL. To detect enzyme inhibition, except when specified, the ligands were directly dissolved in cyclase reaction buffer before pH adjustment, after which, the pH was immediately adjusted to 6.6. […]
The reaction buffer for hydrolase or cyclase assays was excited at 300 nm, and fluorescence emission was measured every second at 410 nm by Shimazu RF-6000 spectrofluorometer. Hydrolase or cyclase activity was calculated from the linear portion of the time course by fitting a linear function to the data points recorded within 5 min.

In series [2] the target is T2, recombinant hCD38 (Homo sapiens, UniProt P28907).
T2 construct: the commercial recombinant hCD38 without a transmembrane region was partially used in this study; purchased Sino Biological 10818-H08H
T2 sequence (P28907 43-300 limits assumed): T1 sequence (P28907 43-300 limits assumed)
The series can be described thus: Metabolic assay of NAD+ (degradation by recombinant hCD38). Format: biochemical. The conditions noted are these: sUA 100, 200 or 500 μM; NAD+ 200 μM; hCD38 20 ng/mL; Figure 3F. Here is the method: NAD^+ degradation by recombinant hCD38 was detected in hydrolase reaction buffer. At first, sUA (100, 200, and 500 μM) or other ligands at 500 μM in hydrolase reaction buffer (250 mM sucrose, 40 mM Tris) was freshly prepared, then the pH was immediately adjusted to 7.4 by HCl. Recombinant hCD38 was added into the buffer of experimental groups at 20 ng/mL, then the buffer was maintained at 37°C. The substrate NAD^+ was dissolved in hydrolase reaction buffer (pH 7.4) at 10 mM, and the pH was further adjusted to 7.4. The reaction was started with the addition of NAD^+ in the buffer for each group (final concentration is 200 μM), including control group (recombinant hCD38 free). All the buffers were incubated at 37°C with constant stirring. […]
(§1) As mentioned above, samples (cells, tissues, blood, or reaction buffer) were treated with ice-cold PCA, after extraction and centrifugation, the collected supernatant was appropriately diluted in 5% ice-cold PCA when applicable, and then was vortexed for 30 s and centrifuged at 15,000 rpm, 4°C for 5 min. […] All the samples after handling were immediately analyzed in this study without freezing and thawing.
(§2) The LC-MS/MS system consisted of a triple quadrupole LCMS-8050 (Shimadzu) and an LC-30A system (Shimadzu). […] NAD^+ and NMN were measured independently in this study, as their peaks were hardly separated within a short time.

Series [3] has as its target T2, recombinant hCD38. Description: Metabolic assay of NMN (degradation by recombinant hCD38). The conditions noted are these: NMN 200 μM, hCD38 20 ng/mL, 6 hr. Format: biochemical. The protocol:
To prepare the reaction buffer, sUA was directly dissolved in blank RPMI-1640 medium by addition of NaOH, and the pH was immediately adjusted by HCl. After pH adjustment, the medium containing sUA was filtered by 0.2 μm filter and diluted as indicated. The medium containing 20 ng/mL recombinant hCD38 was then placed in a cell incubator. The reaction was started with the addition of NMN (final concentration was 200 μM). After incubation for 6 hr, 20 μL medium was transferred into 180 μL 5% ice-cold PCA, then vortexed for 30 s and centrifuged at 15,000 rpm, 4°C for 10 min. The supernatant was stored at –80°C until further handling for NMN measurement (see LC-MS/MS analysis).
as §1, §2

A further series relates to primed WT BMDMs. Description: sUA uptake assay in primed WT BMDMs. It is filed as cell-based, mouse. As to conditions: sUA 100, 200 or 500 μM, 2 or 15 hr. The protocol: WT BMDMs were primed with 100 ng/mL ultrapure LPS for 4 hr. Then, the cells were washed twice with sterile PBS, and maintained in RPMI-1640 medium containing sUA (100, 200, or 500 μM) for 2 or 15 hr. Subsequently, the cells were washed twice with ice-cold sterile PBS to terminate uptake, 100 μL 5% ice-cold PCA was added into each well. The plates were placed on ice for 2 hr, then cell samples were collected and centrifuged at 15,000 rpm, 4°C for 10 min. The supernatant was used for subsequent handling and measurement (see LC-MS/MS analysis).

What is called Ki is a measure of affinity in units of concentration, obtained from inhibition or displacement. As for `O=c1[nH]c(=O)c2[nH]c(=O)[nH]c2[nH]1` [sUA, uric acid], the Ki in series [1] is 57.1 µM. Moreover, the “NAD+ availability, degradation by recombinant hCD38” value at recombinant hCD38 [2] was “increased NAD^+ availability”. Further, the “NMN degradation by recombinant hCD38” value on recombinant hCD38 [3] is “directly inhibited NMN degradation”. In the series on primed WT BMDMs, the sUA uptake entry was “very low”.
